What was measured:
HCT116-NLV cells = experiment: Epigenetic small molecule screen, coculture with CMV-specific T cells, 48 h; type: cell-based, human; details: Ag+ coculture, 2.5uM or 5uM
HCT116-EBV cells = experiment: Epigenetic small molecule screen, negative control coculture with CMV-specific T cells, 48 h; details: Ag- (EBV peptide) coculture, 2.5uM or 5uM
HCT116 cells [1] = experiment: CellTiterGlo viability with BET inhibitor + TNF, 72 h; type: cell-based; details: in combination with 15ng/ml TNF vs BET inhibitor single agent, significance for the highest concentration of compound
MKN45 cells [2] = experiment: as above; type: cell-based; details: in combination with 15ng/ml TNF vs BET inhibitor single agent, significance for the highest concentration of compound
[3] = tested on: MC38-huCEA expressing sc tumors; experiment: In vivo antitumor efficacy against MC38-huCEA sc tumors; design: species or system mice; details: single agent; JQ1 50mg/kg ip once daily (14x) or CEA-TCB 2.5mg/kg iv twice weekly (4x); last day of study
MC38 cells [4] = experiment: Viability of p-gp 1 expressing MC38 cells with BET inhibitor + TNF +/- Zosuquidar, 72 h; type: cell-based, murine; details: for change in sensitivity by p-gp 1 block with Zosuquidar: 0.5mM (so in the source) Zosuquidar, TNF 15ng/mL, 72 hours, some concentrations tested
HCT116 cells [5] = experiment: Cleaved PARP Western blot with CEA-TCB 2 conditioned media + RG6146; type: cell-based; details: RG6146 (2.5 and 7 mM as printed) + CEA-TCB 2 conditioned media; not seen in absence of CEA-TCB 2
MC38 cells [6] = experiment: Synergy of RG6146 and recombinant TNF (PI positivity, ZIP model); type: cell-based, murine; details: RG6146 + recombinant TNF, 18 hours
HCT116 cells [7] = experiment: CEA-TCB bystander killing of CEA negative cells, flow cytometry, 72 h; type: cell-based; details: RG6146 15uM to 0.002uM with CEA-TCB activated T cells
HCT116-GFP cells = experiment: CEA-TCB bystander effect on CEA negative cell growth, Incucyte S3; type: cell-based; details: RG6146 combined with CEA-TCB (20nM) vs RG6146 single agent, one week
MC38 cells [8] = experiment: Cell death of MC38 cells overexpressing Bcl-2 or cFLIP (PI positivity), 18 h; type: cell-based, murine; design: dose or concentration left out as unconfirmed; details: cFLIP overexpression, RG6146 (so in the source) and TNF
[9] = tested on: MLL-AF9-driven acute myeloid leukemia cells; experiment: OT1 T cell cytotoxicity towards MLL-AF9 AML cells (PI positivity), 16 h; type: cell-based, murine; details: 2.5uM RG6146, 16 hours
MKN45 cells [10] = experiment: Viability with CEA-TCB/PBMC conditioned media + RG6146, 72 h; type: cell-based
MKN45 cells [11] = experiment: Cleaved PARP Western blot with CEA-TCB conditioned media + RG6146; type: cell-based; details: RG6146 (1 and 2.5 mM as printed) + CEA-TCB conditioned media, 24h; not seen in absence of CEA-TCB
Caspase 8 = Caspase 8 Glo activity, 8 h; type: cell-based; details: for Caspase 8 activity: RG6146 + 15ng/mL TNF vs RG6146 single agent, 8h
MKN45 cells [12] = experiment: Cleaved PARP Western blot with CEA-TCB 2 conditioned media + RG6146; type: cell-based; details: RG6146 (2.5 and 7 mM as printed) + CEA-TCB 2 conditioned media; not seen in absence of CEA-TCB 2
Caspase 3,7 = Caspase 3,7 Glo activity, 8 h; type: cell-based; details: for Caspase 3,7 activity: RG6146 + 15ng/mL TNF vs RG6146 single agent, 8h
MC38-Ova cells = experiment: OT1 T cell co-culture cytotoxicity (PI positivity), 18 h; type: cell-based, murine; design: dose or concentration left out as unconfirmed; details: RG6146 with OT1 T cells
HCT116 cells [13] = experiment: CEA-TCB 2 bystander killing of CEA negative cells, flow cytometry, 72 h; type: cell-based; details: RG6146 15uM to 0.002uM with CEA-TCB 2 activated CTLs
HCT116 cells [14] = experiment: Growth with Caspase 8 knock down, Incucyte S3; type: cell-based; details: 2.5mM (so in the source) RG6146 + 15ng/ml TNF, 7 days
AU565 cells = experiment: Synergy of RG6146 and recombinant TNF (PI positivity, ZIP model); type: cell-based, human; details: RG6146 + recombinant TNF, 18 hours
HCT116 cells [15] = details: CEA-TCB; "as has been shown for HCT116 cells that express no CEA"; cited from earlier work
[16] = tested on: CEA on tumor cells and CD3e on T cells; details: mouse models; cited from earlier work
HCT116 cells [17] = experiment: Viability with CEA-TCB/PBMC conditioned media + RG6146, 72 h; type: cell-based; details: 20nM CEA-TCB conditioned media + RG6146 30uM to 0.0005uM
[18] = HCT116 and MKN45 cells, inhibitor with RG6146 + TNF (significance not shown)

CCNC(=O)c1cc2c(-c3cc(C(C)(C)O)ccc3Oc3c(C)cc(F)cc3C)cn(C)c(=O)c2[nH]1 [ABBV744]
viability (HCT116-NLV cells): significantly decrease viability

Nc1ccccc1NC(=O)c1ccc(CNC(=O)OCc2cccnc2)cc1 [Entinostat]
viability in negative control coculture (toxicity) (HCT116-EBV cells): decreased viability also in the negative control

Cc1sc2c(c1C)C(c1ccc(Cl)cc1)=N[C@@H](CC(=O)OC(C)(C)C)c1nnc(C)n1-2 [JQ1]
viability (HCT116-NLV cells): significantly decrease viability
viability (HCT116 cells [1]): significantly decrease viability
viability (MKN45 cells [2]): significantly decrease viability
decreased tumor growth [3]: 50%
change in sensitivity by p-gp 1 block with Zosuquidar (MC38 cells [4]): no change

CCS(=O)(=O)Nc1ccc(Oc2ccc(F)cc2F)c(-c2cn(C)c(=O)c3[nH]ccc23)c1 [Mivebresib]
viability (HCT116-NLV cells): significantly decrease viability

Cc1sc2c(c1C)C(c1ccc(Cl)cc1)=N[C@@H](CC(=O)Nc1ccc(O)cc1)c1nnc(C)n1-2 [OTX015]
viability (HCT116-NLV cells): significantly decrease viability
viability (HCT116 cells [1]): significantly decrease viability
viability (MKN45 cells [2]): significantly decrease viability

Cc1[nH]c2ccccc2c1CCNCc1ccc(/C=C/C(=O)NO)cc1 [Panobinostat]
viability in negative control coculture (toxicity) (HCT116-EBV cells): decreased viability also in the negative control

Cc1sc2c(c1C)C(c1ccc(Cl)cc1)=N[C@@H](CC(=O)NCCCN1CCN(C)CC1)c1nnc(C)n1-2 [RG6146, 2-[(S)-4-(4-chloro-phenyl)-2,3,9-trimethyl-6H-l-thia-5,7,8,9a-tetraaza-cyclopenta[e]azulen-6-yl]-N-[3-(4-methyl-piperazin-l-yl)-propyl]-acetamide]
cell death (cleaved PARP) (HCT116 cells [5]): able to induce cell death
viability (HCT116-NLV cells): significantly decrease viability
viability (HCT116 cells [1]): significantly decrease viability
induction of cell death, synergy with TNF (MC38 cells [6]): synergstic
cell killing in CEA negative cells (HCT116 cells [7]): able to increase cell killing
cell growth of CEA negative cells (HCT116-GFP cells): significantly decrease cell growth
viability (MKN45 cells [2]): significantly decrease viability
cytotoxic effects of TNF+RG6146 (MC38 cells [8]): abrogate the cytotoxic effects
cytotoxic activity of OT1 T cells ([9]; perforin expressing (wild-type) OT1 T cells): augments the cytotoxic activity
cytotoxic activity of OT1 T cells ([9]; perforin-deficient OT1 T cells): augments the cytotoxic activity
viability (MKN45 cells [10]; RG6146 with CEA-TCB supernatant): decrease in viability
cell death (cleaved PARP) (MKN45 cells [11]): able to induce cell death
Caspase 8 activity (Caspase 8; HCT116 cells): induces Caspase3,7 and 8 activity in HCT-116 and MKN45 cells significantly
Caspase 8 activity (Caspase 8; MKN45 cells): induces Caspase3,7 and 8 activity in HCT-116 and MKN45 cells significantly
change in sensitivity by p-gp 1 block with Zosuquidar (MC38 cells [4]): sensitized
sensitivity of p-gp 1 expressing MC38 cells (MC38 cells [4]; compared to JQ1): less sensitive
cell death (cleaved PARP) (MKN45 cells [12]): able to induce cell death
Caspase 3,7 activity (Caspase 3,7; HCT116 cells): induces Caspase3,7 and 8 activity in HCT-116 and MKN45 cells significantly
Caspase 3,7 activity (Caspase 3,7; MKN45 cells): induces Caspase3,7 and 8 activity in HCT-116 and MKN45 cells significantly
cell death (PI positivity) (MC38-Ova cells): increased cell death
cell killing in CEA negative cells (HCT116 cells [13]): able to increase cell killing
cell growth rescue (HCT116 cells [14]; Caspase 8 knockdown): rescued cell growth under these treatment conditions partially
cell growth (HCT116 cells [14]; scr treated cells): completely blocked HCT116 cell growth
induction of cell death, synergy with TNF (AU565 cells): synergstic

O=C(CCCCCCC(=O)Nc1ccccc1)NO [Vorinostat]
viability in negative control coculture (toxicity) (HCT116-EBV cells): decreased viability also in the negative control

COc1cc2c(cc1-c1c(C)noc1C)ncc1[nH]c(=O)n([C@H](C)c3ccccn3)c12 [ΪBET151]
viability (HCT116-NLV cells): significantly decrease viability
viability (HCT116 cells [1]): significantly decrease viability
viability (MKN45 cells [2]): significantly decrease viability

Z-IETD-FMK: Caspase 8 inhibitor Z-IETD-FMK (R&D Systems #FMK007) (not fully specified)
block of Caspase 8 activation (Caspase 8; [18]): blocked Caspase 8 and downstream Caspase 3,7 activation completely
block of downstream Caspase 3,7 activation (Caspase 3,7; [18]): blocked Caspase 8 and downstream Caspase 3,7 activation completely

B1: CEA-TCB: T cell activating bispecific antibody targeting CEA on tumor cells and CD3e on T cells (antibody, chains of the INN, looked up, V domains shown)
VH: QVQLVQSGAEVKKPGASVKVSCKASGYTFTEFGMNWVRQAPGQGLEWMGWINTKTGEATYVEEFKGRVTFTTDTSTSTAYMELRSLRSDDTAVYYCARWDFAYYVEAMDYWGQGTTVTVSS
VL: DIQMTQSPSSLSASVGDRVTITCKASAAVGTYVAWYQQKPGKAPKLLIYSASYRKRGVPSRFSGSGSGTDFTLTISSLQPEDFATYYCHQYYTYPLFTFGQGTKLEIK
VH2: B1 VH
VL2: QAVVTQEPSLTVSPGGTVTLTCGSSTGAVTTSNYANWVQEKPGQAFRGLIGGTNKRAPGTPARFSGSLLGGKAALTLSGAQPEDEAEYYCALWYSNLWVFGGGTKLTVL
CTL killing of cells with low or no CEA (HCT116 cells [15]): not able to induce CTL killing
PD-L1/PD-1 pathway [16]: up-regulates
anti-tumor activity [16]: potent anti-tumor activity
intratumoral T cell infiltration [16]: increased intratumoral T cell infiltration
release of pro-inflammatory cytokines such as IFNy, TNF and Granzyme B [16]: increased release of pro-inflammatory cytokines
decreased tumor growth [3]: 60%
combination of cytokines released by CEA-TCB activated T cells with BET inhibition (MKN45 cells [10]; 20nM CEA-TCB conditioned media + RG6146 30uM to 0.0005uM): synergistically combine with BET inhibition
combination of cytokines released by CEA-TCB activated T cells with BET inhibition (HCT116 cells [17]): synergistically combine with BET inhibition

— patent WO2020169698A1, “Sensitization of cancer cells to tnf by bet inhibition” (dated 2020)
